We go through seven compounds from patent US20040265940A1, “Amperometer sensor” (priority 2001, published 2004).

Where two headings read alike, the source gives them in different places.

Series [1] is described as follows: Potential of oxidation peak at a glassy carbon electrode. The series is classed as physicochemical. Conditions: pH 6.95 bis-tris buffer, Ag/AgCl/sat. KCl reference electrode.
The conditions of series [2]: cited from earlier work; for Solubility: values obtained from SRC PhysProp Database.
The conditions of series [3]: versus SCE; cited from earlier work.

Consider `CC1=CC(=O)C=C(C)C1=O`, for which, in series [1], the “Eox (potential of oxidation peak)” value was found to be 137 mV. Besides, the solubility in water in series [2] (in water at 25° C.) is listed as 7888 mgL^−1. In addition, the Solubility in series [2] was 7.88 E+03 (SRC) mg/L.
Take `O=C1C=CC(=O)C=C1` [1,4-benzoquinone, reference compound]: the “Eox (potential of oxidation peak)” value in series [1] amounted to 278 mV. The solubility in water in series [2] (in water at 18° C.) is on record as 11,000 mgL^−1. For the same compound, the Solubility in series [2] is given as 1.11 E+04 (SRC) mg/L. Moreover, the oxidation potential entry in series [3] is “approximately +400 mV”.
In the case of `COC1=C(OC)C(=O)C(C)=CC1=O` [2,3-dimethoxy-5-methyl-1,4-benzoquinone], in series [1], the “Eox (potential of oxidation peak)” value is given as 156 mV. Moreover, the solubility in water in series [2] (in water at 25° C.) is 11,000 mgL^−1. Further, the Solubility in series [2] is given as 1.11 E+04 (SRC) mg/L.
`COC1=CC(=O)C=C(OC)C1=O` [2,6-dimethoxy-1,4-benzoquinone]: in series [1], the “Eox (potential of oxidation peak)” value amounted to 166 mV. In addition, the solubility in water in series [2] (in water at 25° C.) is listed as 70,600 mgL^−1. In series [2], the Solubility was 7.06 E+04 (SRC) mg/L.
Consider `COC1=CC(=O)C=C(CO)C1=O` [2-hydroxymethyl-6-methoxy-1,4-benzoquinone], for which, in series [1], the “Eox (potential of oxidation peak)” value stood at 158 mV.
For `O=C1C=CC(=O)C(c2ccccc2)=C1` [Phenyl-1,4-benzoquinone], the “Eox (potential of oxidation peak)” value in series [1] came to 229 mV. Further, the solubility in water in series [2] (in water at 25° C.) was 1135 mgL^−1. Further, the Solubility in series [2] was 1.14 E+03 (SRC) mg/L.
Consider `CC1=C(C)C(=O)C(C)=C(C)C1=O` [Tetramethyl-1,4-benzoquinone], for which the “Eox (potential of oxidation peak)” value in series [1] is reported as −37 mV. For the same compound, in series [2] (in water at 25° C.), the solubility in water is reported as 443 mgL^−1. For the same compound, the Solubility in series [2] is 4.43 E+02 (SRC) mg/L.
